Results taken from patent US20040167199A1, “Methods of using and compositions comprising (-)-3-(3,4-dimethoxy-phenyl)-3-(1-oxo-1,3-dihydro-isoindol-2-yl)-propionamide” (Celgene Corporation, priority 2002, published 2004).

Experiments:
[1] = tested on: LPS-induced TNF-α production from human PBMC; assay: LPS-induced TNF-α production from human PBMC; type: cell-based; conditions: LPS 100 ng/ml, 18-20 hours, ELISA
Description: Lipopolysaccharide (LPS) is an endotoxin produced by gram-negative bacteria such as E. coli which induces production of many pro-inflammatory cytokines, including TNF-α In peripheral blood mononuclear cells (PBMC), the TNF-α produced in response to LPS is derived from monocytes, which comprise approximately 5-20% of the total PBMC. Compounds were tested for the ability to inhibit LPS-induced TNF-α production from human PBMC as previously described (Muller et al. 1996, J. Med Chem. 39:3238). PBMC from normal donors were obtained by Ficoll Hypaque (Pharmacia, Piscataway, N.J., USA) density centrifugation. Cells were cultured in RPMI (Life Technologies, Grand Island, N.Y., USA) supplemented with 10% AB± human serum (Gemini Bio-products, Woodland, Calif., USA), 2 mM L-glutamine, 100 U/ml penicillin, and 100 μg/ml streptomycin (Life Technologies).
PBMC (2×10^5 cells) were plated in 96-well flat-bottom Costar tissue culture plates (Coming, N.Y., USA) in triplicate. Cells were stimulated with LPS (Sigma, St. Louis, Mo., USA) at 100 ng/ml in the absence or presence of compounds. Compounds (Celgene Corp., Warren, N.J., USA) were dissolved in DMSO (Sigma) and further dilutions were done in culture medium immediately before use. The final DMSO concentration in all samples was 0.25%. Compounds were added to cells 1 hour before LPS stimulation. […]

[2] = tested on: IL-1β-induced TNF-α production from human PBMC; assay: IL-1β-induced TNF-α production from human PBMC; type: cell-based; conditions: recombinant human IL-1β 50 ng/ml, 18 hours
Description: During the course of inflammatory diseases, TNF-α production is often stimulated by the cytokine IL-1β, rather than by bacterially derived LPS. Compounds are tested for the ability to inhibit EL-1β-induced TNF-α production from human PBMC as described above for LPS-induced TNF-α production, except that the PBMC are isolated from source leukocyte units (Sera-Tec Biologicals, North Brunswick, N.J., USA) by centrifugation on Ficoll-Paque Plus (Amersham Pharmacia, Piscataway, N.J., USA), plated in 96-well tissue culture plates at 3×10^5 cells/well in RPMI-1640 medium (BioWhittaker, Walkersville, Md., USA) containing 10% heat-inactivated fetal bovine serum (Hyclone), 2 mM L-glutamine, 100 U/ml penicillin, and […] (complete medium), pretreated with compounds at 10, 2, 0.4, 0.08, 0.016, 0.0032, 0.00064, and 0 μM in duplicate at a final DMSO concentration of 0.1% at 37° C. in a humidified incubator at 5% CO2 for 1 hour, then stimulated with 50 ng/ml recombinant human IL-1β (Endogen) for 18 hours.

[3] = tested on: PDE4 enzyme purified from U937 human monocytic cells; assay: PDE4 inhibition (enzyme purified from U937 cells); type: biochemical; conditions: 1 μM cAMP, 30 min at 30° C.
Description: PDE4 enzyme was purified from U937 human monocytic cells by gel filtration chromatography as previously described (Muller et al. 1998, Bioorg. & Med Chem Lett 8:2669-2674). Phosphodiesterase reactions were carried out in 50 mM Tris HCl pH 7.5, 5 mM MgCl2, 1 μM cAMP, 10 nM [^311)-cAMP for 30 min at 30° C., terminated by boiling, treated with 1 mg/ml snake venom, and separated using AG-IXS ion exchange resin (BioRad) as described (Muller et al. 1998, Bioorg. & Med Chem Lett 8:2669-2674). Reactions consumed less than 15% of available substrate.

[4] = tested on: bovine PDE1; assay: PDE selectivity, single concentration, PDE1; type: biochemical; conditions: for PDE Specificity Ratio PDE1/PDE4: from above data
Description: (§1) The specificity of compounds for specific PDE's was assessed by testing at a single concentration (100 μM) against bovine PDE1, human PDE2, PDE3, and PDE5 from human platelets (Hidaka and Asano 1976, Biochem. Biophys. Acta 429:485, and Nicholsen et al. 1991, Trends Pharmaco. Sci. 12:19).

[5] = tested on: PDE3 from human platelets; assay: PDE selectivity, single concentration, PDE3; type: biochemical; conditions: for PDE Specificity Ratio PDE3/PDE4: from above data
Description: as §1

[6] = target: T1, PDE5 from human platelets (Homo sapiens, UniProt O76074); assay: PDE selectivity, single concentration, PDE5; type: biochemical; conditions: for PDE Specificity Ratio PDE5/PDE4: from above data; for inhibition at 100 µM: read-out: PDE5 (% inhib at 100 μM)
T1 construct: PDE3, and PDE5 from human platelets; from tissue; host or cells: human platelets
Description: as §1

[7] = Pharmacokinetics after oral administration in female rats; conditions: rat, in vivo, 80 mg/kg oral in aqueous CMC
Excerpt: Table III presents plasma concentration data (ng/mL) taken at 0.5 hr., 1 hr., 2 hrs., 4 hrs., 7 hrs., 10 hrs. and 24 hrs. following the administration, Cmax, Tmax and AUC.

[8] = target: human PDE2 (Homo sapiens, UniProt O00408); assay: PDE selectivity, single concentration, PDE2; type: biochemical
Description: as §1

human PDE2, sequence (O00408 whole entry): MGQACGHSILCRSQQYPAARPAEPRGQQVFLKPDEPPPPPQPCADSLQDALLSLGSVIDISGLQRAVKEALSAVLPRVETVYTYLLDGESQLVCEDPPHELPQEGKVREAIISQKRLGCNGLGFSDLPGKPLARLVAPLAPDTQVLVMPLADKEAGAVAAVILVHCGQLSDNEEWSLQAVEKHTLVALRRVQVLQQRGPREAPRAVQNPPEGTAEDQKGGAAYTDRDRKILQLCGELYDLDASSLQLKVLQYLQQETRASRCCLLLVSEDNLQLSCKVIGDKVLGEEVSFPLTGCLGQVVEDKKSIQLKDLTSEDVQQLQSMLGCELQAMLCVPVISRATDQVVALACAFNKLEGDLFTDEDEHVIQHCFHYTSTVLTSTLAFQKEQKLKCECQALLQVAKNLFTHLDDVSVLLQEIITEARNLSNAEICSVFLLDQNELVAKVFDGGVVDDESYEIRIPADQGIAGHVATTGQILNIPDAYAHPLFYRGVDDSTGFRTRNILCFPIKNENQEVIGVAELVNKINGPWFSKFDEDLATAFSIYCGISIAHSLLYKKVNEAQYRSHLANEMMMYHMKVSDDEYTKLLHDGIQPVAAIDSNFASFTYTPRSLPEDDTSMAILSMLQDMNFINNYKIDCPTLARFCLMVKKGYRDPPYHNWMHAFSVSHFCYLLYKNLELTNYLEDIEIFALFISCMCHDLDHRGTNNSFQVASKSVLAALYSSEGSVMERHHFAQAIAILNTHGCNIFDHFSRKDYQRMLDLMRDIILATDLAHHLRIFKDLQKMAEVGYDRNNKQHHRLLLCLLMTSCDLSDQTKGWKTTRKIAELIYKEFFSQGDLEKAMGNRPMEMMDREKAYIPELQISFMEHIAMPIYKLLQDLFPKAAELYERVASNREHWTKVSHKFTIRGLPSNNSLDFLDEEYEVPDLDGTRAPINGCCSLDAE

Compound	IC50 [1]	IC50 [2]	IC50 [3]	PDE1 (% inhib at 100 μM) [4]	PDE Specificity Ratio PDE1/PDE4 [4]	PDE3 (% inhib at 100 μM) [5]	PDE Specificity Ratio PDE3/PDE4 [5]	PDE Specificity Ratio PDE5/PDE4 [6]	inhibition at 100 µM [6]	also measured
COc1ccc(C(CC(N)=O)N2Cc3ccccc3C2=O)cc1OC (racemic) [Racemic Compound, 3-(3,4-dimethoxy-phenyl)-3-(1-oxo-1,3-dihydro-isoindol-2-yl)-propionamide]	21 µM	16 µM	15 µM	20%	>4.8 fold	51%	˜4.8 fold	>4.8 fold	14%	concentration at 0 h ([7]; 0 hour, read-out: plasma concentration): 0 µg/mL; AUC [7]: 44.2 µg·h/mL; Cmax [7]: 4.91 µg/mL; Tmax [7]: 2 h; concentration at 0.5 h ([7]; 0.5 hour, read-out: plasma concentration): 3.9 µg/mL; concentration at 1 h ([7]; 1 hour, read-out: plasma concentration): 4.6 µg/mL; concentration at 2 h ([7]; 2 hours, read-out: plasma concentration): 4.12 µg/mL; concentration at 4 h ([7]; 4 hours, read-out: plasma concentration): 2.98 µg/mL; concentration at 7 h ([7]; 7 hours, read-out: plasma concentration): 2.52 µg/mL; concentration at 10 h ([7]; 10 hours, read-out: plasma concentration): 2.06 µg/mL; concentration at 24 h ([7]; 24 hours, read-out: plasma concentration): 0.0092 µg/mL
COc1ccc(C(CC(N)=O)N2Cc3ccccc3C2=O)cc1OC (single isomer, unassigned; (+)) [Compound B, (+)-3-(3,4-dimethoxy-phenyl)-3-(1-oxo-1,3-dihydro-isoindol-2-yl)-propionamide]	100 µM	86 µM	67 µM	47%	˜1 fold	50%	˜1 fold	>1 fold	5%	PDE Specificity Ratio PDE2/PDE4 ([8]; from above data): >1 fold; inhibition at 100 µM ([8]; read-out: PDE2 (% inhib at 100 μM)): 22%
